Measurements published in patent US7879853B2, “4,6-disubstituted pyrimidines and their use as protein kinase inhibitors” (Bayer Schering Pharma AG, priority 2004, dated 2011).

What was measured:
[1] = system: MDA-MB-468 cells; test: Cellular proliferation/cytotoxicity assay (Alamar Blue), MDA-MB-468; assay type: cell-based; conditions: Homo sapiens; MDA-MB-468, 48 hours, Alamar Blue (Resazurin); read-out: Anti-proliferative/cytotoxic activity: IC50 MDA468
Description: The anti-proliferative activity of the compounds as described herein, is evaluated using MCF7 and MDA-MB-468 (ATCC HTB-22 and HTB-132) cell lines and the Alamar Blue (Resazurin) cell viability assay (O'Brien et al. Eur J Biochem 267, 5421-5426, 2000). Resazurin is reduced to the fluorescent rescrufin by cellular dehydrogenase activity, correlating with viable, proliferating cells. Test compounds are dissolved as 10 mM solutions in DMSO and subsequently diluted. MCF7 or […] cells were seeded into 96 well flat bottom plates at a density of 10000 cells/well (MCF7) or 5000 cells/well (MDA-MB-468) in a volume of 200 μl/well. 24 hours after seeding, 1 μl each of the compound dilutions are added into each well of the 96 well plates. Each compound dilution is tested as at least as duplicates. Wells containing untreated control cells were filled with 200 μl DMEM containing 0.5% v:v DMSO. The cells are then incubated with the substances for 48 hours at 37° C. in a humidified atmosphere containing 5% carbon dioxide. To determine cell viability, 20 μl of a Resazurin solution (Sigma; 90 mg/l) are added. After 4 hours incubation at 37° C. the fluorescence is measured at an extinction of 544 nm and an emission of 590 nm (Wallac Victor2; Perkin Elmer, USA). For the calculation of the cell viability the emission value from untreated cells is set as 100% viability and the emission rates of treated cells are set in relation to the values of untreated cells. Viabilities are expressed as % values. The corresponding IC50 values of the compounds for cytotoxic activity are determined from the concentration-effect curves by means of non-linear regression. The analysis of the data is performed using a biostatistical program (GraphPad Prism, USA).

[2] = system: phosphorylated GSK3 (Ser9) in MCF7 cells; test: Cellular pGSK3 assay (pGSK3-ELISA); assay type: cell-based; conditions: Homo sapiens, 48 h, read-out: GSK3 inhibition (pGSK3-ELISA): IC50
Description: In order to study the cellular activity of the compounds according to the invention, an ELISA-based assay has been established for the phosphorylated glycogen synthetase kinase 3, GSK3. The assay is based on a solid phase sandwich ELISA that detects endogenous levels of the phosphorylated GSK3 (BioSource International, Inc.; Catalog #KHO0461). A phospho-GSK3 (Ser9) antibody has been coated onto the microwells. After incubation with cell lysates, the coated antibody captures the phosphorylated GSK3 protein. Following extensive washing, GSK3 polyclonal antibody is added to detect the captured phospho-GSK3 protein. HRP-linked […] antibody (anti-rabbit IgG-HRP) is then used to recognize the bound detection antibody. […]
Cells are harvested and lysed with brief vortexing in cell extraction buffer (10 mM Tris, pH 7.4, 100 mM NaCl, 1 mM EDTA, 1 mM EGTA, 1 mM NaF, 20 mM Na4P2O7, 2 mM Na3VO4, 1% Triton X-100, 10% glycerol, 0.1% SDS, 0.5% deoxycholate, 1 mM PMSF). […] The absorbance is measured at 450 nm (Wallac Victor2; Perkin Elmer, USA) within 30 minutes after adding Stop solution. The analysis of the data is performed using a statistical program (Microsoft Excel, USA) and the inhibition of pGSK3 phosphorylation is determined.

IC50 [2]: 10 µM
SMILES: CC(C)(N)c1ccc(C(=O)Nc2ccc(Nc3cc(-c4cccc5c4oc4ccccc45)ncn3)cc2)cc1 [Compound 69, 4-(1-Amino-1-methyl-ethyl)-N-[4-(6-dibenzofuran-4-yl-pyrimidin-4-ylamino)-phenyl]-benzamide trifluoracetate]
IC50 [1]: ≤ 6.05 µM
